Measurements: ChEMBL document CHEMBL3758163, “Extended structure-activity study of thienopyrimidine-based EGFR inhibitors with evaluation of drug-like properties” (Eur J Med Chem, 2016)
pIC50: −log10 of the molar value.

How the values were obtained:
[1] = target: Tyrosine-protein kinase CSK (Homo sapiens) (UniProt P41240); test: Inhibition of CSK (unknown origin) at 500 nM
[2] = target: Fibroblast growth factor receptor 1 (Homo sapiens) (UniProt P11362); test: Inhibition of FGFR1 (unknown origin) at 500 nM
[3] = target: T1, Aurora kinase A (Homo sapiens) (UniProt O14965); test: Inhibition of AURKA (unknown origin) at 500 nM
T1 sequence (whole entry): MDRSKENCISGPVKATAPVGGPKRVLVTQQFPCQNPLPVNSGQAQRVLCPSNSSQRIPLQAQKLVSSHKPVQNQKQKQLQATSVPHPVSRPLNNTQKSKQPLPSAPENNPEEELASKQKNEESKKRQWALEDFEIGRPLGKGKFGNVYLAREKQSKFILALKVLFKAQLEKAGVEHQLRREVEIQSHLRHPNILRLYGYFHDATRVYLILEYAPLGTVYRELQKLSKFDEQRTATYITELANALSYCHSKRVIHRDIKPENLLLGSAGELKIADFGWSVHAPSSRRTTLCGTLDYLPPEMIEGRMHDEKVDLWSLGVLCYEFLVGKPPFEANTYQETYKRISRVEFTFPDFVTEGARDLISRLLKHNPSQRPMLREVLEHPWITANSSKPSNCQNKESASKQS

[4] = target: Mitogen-activated protein kinase 8 (Homo sapiens) (UniProt P45983); test: Inhibition of MAPK8 (unknown origin) at 500 nM
[5] = target: Tyrosine-protein kinase HCK (Homo sapiens) (UniProt P08631); test: Inhibition of HCK (unknown origin) at 500 nM
Chain of Tyrosine-protein kinase HCK (Homo sapiens) (P08631 2-526 limits assumed): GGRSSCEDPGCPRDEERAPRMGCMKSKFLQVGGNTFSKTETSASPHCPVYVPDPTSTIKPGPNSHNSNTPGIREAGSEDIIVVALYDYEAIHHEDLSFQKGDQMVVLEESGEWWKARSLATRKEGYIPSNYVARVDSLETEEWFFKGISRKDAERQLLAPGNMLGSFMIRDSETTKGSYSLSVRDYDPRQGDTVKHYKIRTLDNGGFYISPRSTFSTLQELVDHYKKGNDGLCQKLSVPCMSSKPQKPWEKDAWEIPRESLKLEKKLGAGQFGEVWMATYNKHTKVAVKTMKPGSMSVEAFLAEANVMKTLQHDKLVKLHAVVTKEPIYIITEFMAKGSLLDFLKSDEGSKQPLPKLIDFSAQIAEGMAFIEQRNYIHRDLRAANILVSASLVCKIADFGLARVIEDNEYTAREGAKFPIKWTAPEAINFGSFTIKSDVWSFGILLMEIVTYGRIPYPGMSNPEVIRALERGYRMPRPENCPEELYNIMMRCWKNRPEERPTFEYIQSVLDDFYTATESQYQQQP

[6] = target: Insulin-like growth factor 1 receptor (Homo sapiens) (UniProt P08069); test: Inhibition of IGF1R (unknown origin) at 500 nM
[7] = target: Serine/threonine-protein kinase PLK1 (Homo sapiens) (UniProt P53350); test: Inhibition of PLK1 (unknown origin) at 500 nM
[8] = target: Tyrosine-protein kinase ABL1 (Homo sapiens) (UniProt P00519); test: Inhibition of ABL1 (unknown origin) at 500 nM
[9] = target: Tyrosine-protein kinase Fgr (Homo sapiens) (UniProt P09769); test: Inhibition of FGR (unknown origin) at 500 nM
Chain of Tyrosine-protein kinase Fgr (Homo sapiens) (P09769 2-529 limits assumed): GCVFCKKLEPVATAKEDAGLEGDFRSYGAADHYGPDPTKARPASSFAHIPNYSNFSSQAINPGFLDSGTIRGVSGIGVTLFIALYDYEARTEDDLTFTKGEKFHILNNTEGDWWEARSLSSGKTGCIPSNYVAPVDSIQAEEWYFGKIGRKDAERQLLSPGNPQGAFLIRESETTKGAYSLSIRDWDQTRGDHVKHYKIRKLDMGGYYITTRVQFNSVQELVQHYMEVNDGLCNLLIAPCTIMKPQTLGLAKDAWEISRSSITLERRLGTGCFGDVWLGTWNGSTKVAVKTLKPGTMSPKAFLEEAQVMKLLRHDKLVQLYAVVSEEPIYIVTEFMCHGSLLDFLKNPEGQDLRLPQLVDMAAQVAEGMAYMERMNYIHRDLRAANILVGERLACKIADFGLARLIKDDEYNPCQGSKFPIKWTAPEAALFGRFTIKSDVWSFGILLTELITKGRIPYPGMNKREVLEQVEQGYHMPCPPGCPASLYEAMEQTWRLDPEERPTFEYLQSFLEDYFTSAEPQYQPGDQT

[10] = target: Vascular endothelial growth factor receptor 3 (Homo sapiens) (UniProt P35916); test: Inhibition of FLT4 (unknown origin) at 500 nM
[11] = target: Tyrosine-protein kinase SYK (Homo sapiens) (UniProt P43405); test: Inhibition of SYK (unknown origin) at 500 nM
[12] = target: Epidermal growth factor receptor (Homo sapiens, UniProt P00533); test: Inhibition of EGFR (unknown origin) by Z -LYTE assay
[13] = target: Proto-oncogene tyrosine-protein kinase Src (Homo sapiens) (UniProt P12931); test: Inhibition of SRC (unknown origin) at 500 nM
[14] = target: Serine/threonine-protein kinase pim-2 (Homo sapiens) (UniProt Q9P1W9); test: Inhibition of PIM2 (unknown origin) at 500 nM
Chain of Serine/threonine-protein kinase pim-2 (Homo sapiens) (Q9P1W9 whole entry, looked up): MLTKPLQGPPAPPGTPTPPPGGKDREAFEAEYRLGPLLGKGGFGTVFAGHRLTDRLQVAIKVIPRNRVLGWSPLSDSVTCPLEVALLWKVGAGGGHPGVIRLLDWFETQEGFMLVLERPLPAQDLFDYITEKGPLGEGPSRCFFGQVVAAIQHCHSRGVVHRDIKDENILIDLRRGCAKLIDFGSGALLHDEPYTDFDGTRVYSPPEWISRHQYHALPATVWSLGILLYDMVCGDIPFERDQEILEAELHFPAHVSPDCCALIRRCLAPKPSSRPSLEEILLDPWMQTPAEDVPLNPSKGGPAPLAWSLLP

[15] = target: Tyrosine-protein kinase Yes (Homo sapiens) (UniProt P07947); test: Inhibition of YES1 (unknown origin) at 500 nM
[16] = target: Protein kinase C alpha type (Homo sapiens) (UniProt P17252); test: Inhibition of PRKCA (unknown origin) at 500 nM
[17] = target: Platelet-derived growth factor receptor alpha (Homo sapiens) (UniProt P16234); test: Inhibition of PDGFRA (unknown origin) at 500 nM
[18] = target: Vascular endothelial growth factor receptor 2 (Homo sapiens) (UniProt P35968); test: Inhibition of KDR (unknown origin) at 500 nM
[19] = target: Dual specificity mitogen-activated protein kinase kinase 1 (Homo sapiens) (UniProt Q02750); test: Inhibition of MAP2K1 (unknown origin) at 500 nM
[20] = target: T2, Testis-specific serine/threonine-protein kinase 2 (Homo sapiens) (UniProt Q96PF2); test: Inhibition of STK22B (unknown origin) at 500 nM
T2 sequence (whole entry): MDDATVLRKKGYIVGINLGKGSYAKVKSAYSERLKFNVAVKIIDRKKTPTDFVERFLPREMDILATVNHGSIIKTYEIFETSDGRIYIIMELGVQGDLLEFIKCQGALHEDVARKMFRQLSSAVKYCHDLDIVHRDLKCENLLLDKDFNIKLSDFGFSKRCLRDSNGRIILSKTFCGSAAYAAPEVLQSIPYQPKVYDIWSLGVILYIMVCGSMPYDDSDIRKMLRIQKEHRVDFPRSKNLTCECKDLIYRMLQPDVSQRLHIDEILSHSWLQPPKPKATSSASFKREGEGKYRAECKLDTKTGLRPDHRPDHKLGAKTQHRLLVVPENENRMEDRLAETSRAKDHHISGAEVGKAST

[21] = target: Focal adhesion kinase 1 (Homo sapiens) (UniProt Q05397); test: Inhibition of PTK2 (unknown origin) at 500 nM
[22] = target: Receptor tyrosine-protein kinase erbB-2 (Homo sapiens) (UniProt P04626); test: Inhibition of ERBB2 (unknown origin) at 500 nM
Chain of Receptor tyrosine-protein kinase erbB-2 (Homo sapiens) (P04626 whole entry): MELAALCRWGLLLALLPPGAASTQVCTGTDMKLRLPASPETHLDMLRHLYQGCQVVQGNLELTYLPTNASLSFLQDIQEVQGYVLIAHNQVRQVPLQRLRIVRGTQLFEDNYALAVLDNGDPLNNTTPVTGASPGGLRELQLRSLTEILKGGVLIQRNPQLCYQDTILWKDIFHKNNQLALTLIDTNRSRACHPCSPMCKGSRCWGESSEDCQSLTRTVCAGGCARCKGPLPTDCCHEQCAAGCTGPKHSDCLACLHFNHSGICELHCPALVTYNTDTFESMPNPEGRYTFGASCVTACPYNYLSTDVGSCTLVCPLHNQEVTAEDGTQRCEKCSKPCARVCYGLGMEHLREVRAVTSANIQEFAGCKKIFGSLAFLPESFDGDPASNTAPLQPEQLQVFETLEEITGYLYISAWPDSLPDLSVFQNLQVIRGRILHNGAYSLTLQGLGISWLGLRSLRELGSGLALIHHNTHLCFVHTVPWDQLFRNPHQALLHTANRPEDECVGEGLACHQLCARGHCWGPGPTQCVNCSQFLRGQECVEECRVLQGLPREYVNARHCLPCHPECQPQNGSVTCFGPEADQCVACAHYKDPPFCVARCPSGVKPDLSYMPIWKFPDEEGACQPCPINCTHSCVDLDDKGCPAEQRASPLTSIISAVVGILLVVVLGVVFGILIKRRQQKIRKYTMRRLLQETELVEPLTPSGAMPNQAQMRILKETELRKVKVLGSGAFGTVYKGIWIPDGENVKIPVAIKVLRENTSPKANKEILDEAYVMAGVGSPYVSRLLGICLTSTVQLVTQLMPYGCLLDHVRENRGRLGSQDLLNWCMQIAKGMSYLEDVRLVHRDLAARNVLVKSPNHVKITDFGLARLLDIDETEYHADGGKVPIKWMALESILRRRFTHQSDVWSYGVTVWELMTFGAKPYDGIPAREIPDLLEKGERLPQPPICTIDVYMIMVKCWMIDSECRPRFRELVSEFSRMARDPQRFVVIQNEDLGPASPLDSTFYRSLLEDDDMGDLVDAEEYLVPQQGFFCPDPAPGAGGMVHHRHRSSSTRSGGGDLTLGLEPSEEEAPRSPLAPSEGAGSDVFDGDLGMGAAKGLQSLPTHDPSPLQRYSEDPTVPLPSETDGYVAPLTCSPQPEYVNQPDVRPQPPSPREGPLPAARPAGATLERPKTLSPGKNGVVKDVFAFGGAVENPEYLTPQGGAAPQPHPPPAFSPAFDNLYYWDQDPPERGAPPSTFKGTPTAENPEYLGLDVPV

[23] = target: Protein kinase C beta type (Homo sapiens) (UniProt P05771); test: Inhibition of PRKCB1 (unknown origin) at 500 nM
[24] = target: Mitogen-activated protein kinase 1 (Homo sapiens) (UniProt P28482); test: Inhibition of MAPK1 (unknown origin) at 500 nM
Chain of Mitogen-activated protein kinase 1 (Homo sapiens) (P28482 whole entry): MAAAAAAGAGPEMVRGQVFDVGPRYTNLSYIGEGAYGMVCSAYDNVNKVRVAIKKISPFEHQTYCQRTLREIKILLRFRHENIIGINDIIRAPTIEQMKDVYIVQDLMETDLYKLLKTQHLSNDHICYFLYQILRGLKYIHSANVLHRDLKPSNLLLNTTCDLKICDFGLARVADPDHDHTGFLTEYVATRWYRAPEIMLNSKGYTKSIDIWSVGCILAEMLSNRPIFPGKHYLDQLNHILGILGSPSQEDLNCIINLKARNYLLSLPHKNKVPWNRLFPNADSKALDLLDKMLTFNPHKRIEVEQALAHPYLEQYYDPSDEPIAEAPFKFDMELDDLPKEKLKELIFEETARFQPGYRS

[25] = target: Vascular endothelial growth factor receptor 1 (Homo sapiens) (UniProt P17948); test: Inhibition of FLT1 (unknown origin) at 500 nM
Chain of Vascular endothelial growth factor receptor 1 (Homo sapiens) (P17948 whole entry): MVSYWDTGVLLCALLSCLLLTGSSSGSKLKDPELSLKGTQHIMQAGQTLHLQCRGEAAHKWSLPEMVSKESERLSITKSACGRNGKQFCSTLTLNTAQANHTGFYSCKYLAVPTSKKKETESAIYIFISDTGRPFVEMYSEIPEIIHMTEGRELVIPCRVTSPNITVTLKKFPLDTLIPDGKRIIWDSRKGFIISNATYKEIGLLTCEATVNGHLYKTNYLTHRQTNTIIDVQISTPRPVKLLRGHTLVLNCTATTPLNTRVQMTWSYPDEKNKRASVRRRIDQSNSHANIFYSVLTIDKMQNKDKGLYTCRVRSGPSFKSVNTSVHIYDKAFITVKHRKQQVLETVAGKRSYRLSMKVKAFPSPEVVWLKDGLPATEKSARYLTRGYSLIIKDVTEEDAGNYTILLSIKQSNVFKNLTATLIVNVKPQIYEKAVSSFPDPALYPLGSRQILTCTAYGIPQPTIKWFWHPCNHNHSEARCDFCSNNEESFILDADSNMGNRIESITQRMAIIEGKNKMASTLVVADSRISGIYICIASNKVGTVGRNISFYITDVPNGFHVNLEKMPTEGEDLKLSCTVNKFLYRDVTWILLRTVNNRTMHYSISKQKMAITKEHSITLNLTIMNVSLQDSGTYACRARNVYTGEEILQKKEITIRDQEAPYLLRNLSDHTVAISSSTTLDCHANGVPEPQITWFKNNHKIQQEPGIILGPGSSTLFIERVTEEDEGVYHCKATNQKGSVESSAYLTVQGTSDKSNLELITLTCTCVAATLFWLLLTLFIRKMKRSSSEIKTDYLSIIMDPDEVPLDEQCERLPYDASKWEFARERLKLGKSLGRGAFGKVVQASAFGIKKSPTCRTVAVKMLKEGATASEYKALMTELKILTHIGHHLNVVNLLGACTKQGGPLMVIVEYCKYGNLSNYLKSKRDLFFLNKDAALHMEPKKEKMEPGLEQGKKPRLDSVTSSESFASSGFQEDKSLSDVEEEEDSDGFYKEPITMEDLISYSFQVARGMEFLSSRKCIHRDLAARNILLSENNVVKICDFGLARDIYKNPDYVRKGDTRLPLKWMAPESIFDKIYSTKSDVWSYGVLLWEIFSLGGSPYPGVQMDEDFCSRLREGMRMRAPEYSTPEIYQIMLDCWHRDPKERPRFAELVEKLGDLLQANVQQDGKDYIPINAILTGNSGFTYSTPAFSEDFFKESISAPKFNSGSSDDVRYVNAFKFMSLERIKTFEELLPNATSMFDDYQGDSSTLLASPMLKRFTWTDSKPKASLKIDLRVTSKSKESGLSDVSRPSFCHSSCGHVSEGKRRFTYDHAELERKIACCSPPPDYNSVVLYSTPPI

[26] = target: Aurora kinase B (Homo sapiens) (UniProt Q96GD4); test: Inhibition of AURKB (unknown origin) at 500 nM
[27] = target: Hepatocyte growth factor receptor (Homo sapiens) (UniProt P08581); test: Inhibition of MET (unknown origin) at 500 nM
[28] = target: MAP kinase-activated protein kinase 2 (Homo sapiens) (UniProt P49137); test: Inhibition of MAPKAPK2 (unknown origin) at 500 nM

inhibition [1] | inhibition [2] | inhibition [3] | inhibition [5] | inhibition [7] | inhibition [8] | inhibition [9] | inhibition [10] | inhibition [11] | inhibition [13] | inhibition [14] | inhibition [15] | inhibition [17] | inhibition [18] | inhibition [19] | inhibition [20] | inhibition [21] | inhibition [23] | inhibition [25] | inhibition [26] | Structure (SMILES) | also measured
7% | 1% | 1% | 7% | 1% | 7% | 40% | 3% | 8% | 10% | 1% | 12% | 1% | 12% | 4% | 8% | 6% | 1% | 4% | 1% | COc1cc(CO)ccc1-c1cc2c(N[C@H](C)c3ccccc3)ncnc2s1 | inhibition [4]: 2%; inhibition [27]: 15%; inhibition [28]: 1%; inhibition [22]: 57%; inhibition [24]: 1%
12% | -6% | 6% | 2% | -3% | -5% | 2% | 2% | 6% | 12% | 0% | 10% | -7% | -4% | 3% | 5% | 5% | 3% | 4% | 2% | C[C@@H](Nc1ncnc2sc(-c3ccccc3C(N)=O)cc12)c1ccccc1 | inhibition [4]: 26%; inhibition [6]: -6%; pIC50 [12]: 6.56; inhibition [28]: -8%; inhibition [16]: 8%; inhibition [22]: -3%; inhibition [24]: 9%
8% | -4% | – | – | -9% | 75% | 42% | – | – | 42% | – | – | – | – | – | – | -3% | -2% | 17% | 44% | C#Cc1cccc(Nc2ncnc3cc(OCCOC)c(OCCOC)cc23)c1 [ERLOTINIB] | inhibition [27]: 11%; inhibition [28]: -1%

The remaining lines, values behind:

Structure (SMILES) | inhibition [1] | inhibition [2] | inhibition [3] | inhibition [5] | inhibition [7] | inhibition [8] | inhibition [9] | inhibition [10] | inhibition [11] | inhibition [13] | inhibition [14] | inhibition [15] | inhibition [17] | inhibition [18] | inhibition [19] | inhibition [20] | inhibition [21] | inhibition [23] | inhibition [25] | inhibition [26] | also measured
C[C@@H](Nc1ncnc2sc(-c3ccc(C(=O)NCCN(C)C)cc3)cc12)c1ccccc1 | 10% | -7% | 3% | 3% | 1% | 1% | 18% | 13% | 7% | 18% | 3% | 23% | 15% | 6% | 6% | 11% | 7% | 2% | 1% | 17% | inhibition [4]: 38%; inhibition [6]: -6%; pIC50 [12]: 8.70; inhibition [16]: 0%; inhibition [22]: 40%; inhibition [24]: 9%
COc1cc(C(N)=O)ccc1-c1cc2c(N[C@H](CO)c3ccccc3)ncnc2s1 | 12% | -10% | 6% | 13% | -8% | 4% | 40% | 13% | 17% | 20% | 11% | 40% | 0% | 7% | 10% | 11% | 3% | 5% | 0% | 6% | inhibition [4]: 42%; inhibition [27]: -5%; inhibition [6]: -9%; pIC50 [12]: 8.82; inhibition [28]: -7%; inhibition [16]: -4%; inhibition [22]: 37%; inhibition [24]: 12%
COc1cc(CO)ccc1-c1cc2c(N[C@H](CO)c3ccccc3)ncnc2s1 | 5% | 4% | 5% | 20% | 1% | 22% | 58% | 1% | 10% | 9% | 1% | 37% | 1% | 12% | 18% | 8% | 1% | 4% | 1% | 10% | inhibition [4]: 14%; inhibition [27]: 3%; inhibition [28]: 8%; inhibition [22]: 50%; inhibition [24]: 7%
COc1ccc(C(=O)NCCN(C)C)cc1-c1cc2c(N[C@H](C)c3ccccc3)ncnc2s1 | 3% | -4% | -4% | 15% | 2% | 6% | 71% | 3% | 2% | 9% | -4% | 43% | -3% | 10% | 3% | 0% | 3% | -2% | -8% | -2% | inhibition [27]: -9%; inhibition [6]: -2%; pIC50 [12]: 9.30; inhibition [28]: -1%; inhibition [22]: 63%; inhibition [24]: -1%
CN(C)CCNC(=O)c1ccc(-c2cc3c(N[C@H](CO)c4ccccc4)ncnc3s2)cc1 | 13% | -5% | 6% | 15% | 6% | 27% | 33% | 4% | 23% | 17% | 1% | 21% | 10% | 10% | 12% | 1% | 7% | 18% | 5% | 23% | inhibition [4]: 8%; inhibition [27]: -3%; inhibition [6]: 0%; pIC50 [12]: 8.70; inhibition [28]: 2%; inhibition [22]: 54%; inhibition [24]: -2%
C#Cc1cccc(Nc2ncnc3sc(-c4ccc(CO)cc4OC)cc23)c1 | 8% | -6% | 14% | -4% | -8% | -3% | 11% | 7% | 16% | 15% | 11% | 8% | -9% | 8% | 3% | 2% | 0% | -2% | -7% | 21% | inhibition [4]: 3%; inhibition [6]: -8%; pIC50 [12]: 8.30; inhibition [16]: -7%; inhibition [22]: 19%; inhibition [24]: 1%
